Structures are written as SMILES. Values joined by “and” are separate entries in the source; they are usually repeats but may differ in a detail not shown here. Identical values can stand only once. Bounds are passed on as bounds.

9 compounds from BindingDB's records for doi:10.7270/Q2H993NJ (University of Pittsburgh, 2010) can be followed below.

Chain of Furin (P09958 whole entry): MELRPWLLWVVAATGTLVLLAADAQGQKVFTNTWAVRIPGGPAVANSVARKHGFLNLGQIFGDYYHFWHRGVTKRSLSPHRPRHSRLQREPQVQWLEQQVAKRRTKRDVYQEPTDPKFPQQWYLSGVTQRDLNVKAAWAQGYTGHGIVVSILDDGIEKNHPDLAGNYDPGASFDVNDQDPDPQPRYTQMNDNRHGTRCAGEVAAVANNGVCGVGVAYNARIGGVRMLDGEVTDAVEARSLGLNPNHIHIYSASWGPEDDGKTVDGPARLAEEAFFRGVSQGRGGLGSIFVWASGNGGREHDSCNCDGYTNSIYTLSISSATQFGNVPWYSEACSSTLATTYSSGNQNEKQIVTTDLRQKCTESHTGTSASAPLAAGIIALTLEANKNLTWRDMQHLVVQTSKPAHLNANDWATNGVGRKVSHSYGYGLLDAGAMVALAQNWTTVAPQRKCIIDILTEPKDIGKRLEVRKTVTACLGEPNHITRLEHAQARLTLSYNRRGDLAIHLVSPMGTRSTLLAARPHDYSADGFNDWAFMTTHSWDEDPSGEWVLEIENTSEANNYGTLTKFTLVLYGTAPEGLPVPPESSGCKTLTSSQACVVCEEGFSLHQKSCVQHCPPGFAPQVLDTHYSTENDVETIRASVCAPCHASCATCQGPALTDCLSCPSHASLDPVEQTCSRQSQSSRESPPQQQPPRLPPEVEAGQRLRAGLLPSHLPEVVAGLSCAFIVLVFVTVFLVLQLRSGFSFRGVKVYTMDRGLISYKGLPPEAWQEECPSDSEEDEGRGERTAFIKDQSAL

This assay has as its target Furin (Homo sapiens, UniProt P09958). The assay can be described thus: furin inhibitor potency, dose response, biochemical, fluorescence intensity, IC50 (AID 463182).
The term IC50 denotes the midpoint of a concentration-inhibition curve. In turn, `CC1(C)CC(=O)C(=CNc2cccnc2)C(=O)C1` returned an IC50 greater than 50 µM.

In the case of `CCCOP(=O)(c1ccc(N(C)C)cc1)C(Nc1ccccc1)c1ccc(N(C)C)cc1` (centres undefined), the IC50 is greater than 50 µM. With `Cc1cccc(NC=C2C(=O)CC(C)(C)CC2=O)n1` the figure was greater than 50 µM; with `CCN1CCS/C1=C\C=C\C1=[N+](CC)CCS1` [3-ethyl-2-[(E,3E)-3-(3-ethylthiazolidin-2-ylidene)prop-1-enyl]-2-thiazolin-3-ium;iodide], 33.8 µM and 31.5 µM. As for `CC1(C)CC(=O)C(=CNn2cnc3ccccc3c2=O)C(=O)C1` [5,5-Dimethyl-2-[(4-oxo-4H-quinazolin-3-ylamino)-methylene]-cyclohexane-1,3-dione], the figure is greater than 50 µM; as for `Cc1cccc(-n2c(O)c(C=CC=Nc3ccccc3)c(=O)[nH]c2=O)c1` [(5Z)-1-(3-methylphenyl)-5-[(E)-3-phenylazanylprop-2-enylidene]-1,3-diazinane-2,4,6-trione], greater than 50 µM. `Cc1ccccc1-n1c(O)c(C=Nc2ccc(N(C)C)cc2)c(=O)[nH]c1=O` [SMR000102641] came in with an IC50 greater than 50 µM.

In the case of `Cc1cccc(C=C2SC(NN=C3CC4CCC3(C)C4(C)C)=NC2=O)c1` (centres undefined) [SMR000159419], the IC50 was greater than 50 µM. `CSc1nc(N)c(N=Nc2ccc([As](=O)(O)O)cc2)c(O)n1` [[4-[(2Z)-2-(4-azanyl-2-methylsulfanyl-6-oxidanylidene-pyrimidin-5-ylidene)hydrazinyl]phenyl]arsonic acid] registered an IC50 greater than 50 µM.
